Residues, ends and D or L forms follow the SMILES beside them. No end group written: not given here.
How the values were obtained:
[1] = test system: guinea pig gel filtered platelets
Method: (§1) Human platelet-rich plasma (PRP) concentrate (Biological Specialties, Inc., Colmar, Pa.) was gel-filtered (Sepharose 2B, Pharmacia, Inc.) in Tyrode's buffer (140 mM NaCl, 2.7 mM KCl, 12 mM NaHCO3, 0.76 mM Na2HPO4, 5.5 mM dextrose, 5.0 mM Hepes, and 2 mg/ml BSA, pH 7.4). Guinea pigs (400–800 g) were anesthetized and blood drawn via an intraarterial catheter. PRP was prepared by centrifugation at 200×g for 10 min. Guinea pig PRP was gel-filtered as above. Gel-filtered platelets were diluted with Tyrode's buffer (143,000 platelets/μl, per well) and 2 mM CaCl2 in a 96-well microtiter plate. Platelet aggregation was initiated by the addition of the guinea pig PAR-4 AP (SFPGQA-NH2, SEQ ID No.:7) peptide. The assay plate was gently mixed constantly. Aggregation was monitored at 0 and 5 min after agonist addition in a microplate reader (Molecular Devices) by optical density at 650 nm (ΔSOFT). Aggregation was calculated as the decrease in optical density between the two measurements. All samples were tested in duplicate wells on the same plate.

[2] = test system: human gel filtered platelets; conditions: for induction of human platelet aggregation / activation of human PAR-4 (in words): human platelets
Method: as §1

[3] = test system: guinea pig gel filtered platelets; conditions: Nishikawa et al. (2000); cited from earlier work
[4] = test system: human gel filtered platelets; conditions: background statement; cited from earlier work

## C[C@H](NC(=O)[C@H](CCC(N)=O)NC(=O)CNC(=O)[C@@H]1CCCN1C(=O)[C@H](Cc1ccccc1)NC(=O)[C@@H](N)CO)C(N)=O [guinea pig PAR-4 AP, SFPGQA-NH2] (H-SFPGQA-NH2; N-terminus assumed)
[1]
  EC50: 174 ± 14.6 µM
[2]
  EC50: 140 ± 2.5 µM
  induction of human platelet aggregation / activation of human PAR-4 (in words): cross-activates human PAR-4

## GYPGKF-NH2 [murine PAR-4 AP]
[3]
  response of guinea pig platelets to activating peptide (literature): do not respond

## GYPGQV-NH2 [human PAR-4 AP]
[2]
  induction of human platelet aggregation / activation of human PAR-4 (in words): induced human platelet aggregation

## SFLLRN-NH2 [human PAR-1 AP]
[1]; isolated guinea pig platelets
  induction of guinea pig platelet aggregation / response of guinea pig PAR-4 (in words): induced guinea pig platelet aggregation
[2]
  induction of human platelet aggregation / activation of human PAR-4 (in words): induced human platelet aggregation
[4]
  aggregation of human platelets by exogenous activating peptide (background): aggregation of human platelets can be reproduced

From US7179887B2, “Guinea pig proteinase-activated receptor 4 and its activating peptide” (Ortho-McNeil Pharmaceutical, Inc., priority 2001, dated 2007)
